Measurements reported in US12637478B2, “Compound, preparation method thereof, and antibiotic composition comprising same” (priority 2020, dated 2026).
Values after ≈ are worked out from the molar mass of the structure shown. Read-outs that look alike come from different tables or passages of the source.

Assays:
S. aureus^MS [1] = assay: MIC by broth microdilution (aerobic pathogens), test strain 1; assay type: cell-based; details: Staphylococcus aureus
Outline: (§1)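 Broth microdilution per CLSI M7-A5 standards was used. MIC was taken as the lowest antibiotic concentration inhibiting bacterial growth by 90% relative to the untreated growth control.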

S. aureus^MS [2] = assay: MIC by broth microdilution (aerobic pathogens), test strain 2; assay type: cell-based; details: Staphylococcus aureus
Outline: as §1

S. aureus^MR = assay: MIC by broth microdilution (aerobic pathogens), test strain 3; assay type: cell-based, Methicillin resistant Staphylococcus aureus; details: Staphylococcus aureus
Protocol: The antibacterial activity of the compounds of Examples 1 to 48 of the present invention against aerobic pathogens were evaluated by measuring the minimum concentration of the antibiotic capable of inhibiting bacterial growth by 90% compared to the growth of the non-drug treated control group. MIC was measured by the broth microdilution method based on CLSI standards [Reference: Clinical and Laboratory Standards Institute Document. (2000) Methods for Dilution Antimicrobial Susceptibility Test for Bacteria that Grow Aerobically-Fifth Edition: M7-A5. CLSI, Villanova, PA].
All 13 strains such as methicillin susceptible Staphylococcus aureus (MSSA), methicillin resistant Staphylococcus aureus (MRSA), Vancomycin resistant Staphylococcus aureus (VRSA), Staphylococcus epidermidis, methicillin resistant Staphylococcus epidermidis, Enterococcus faecalis, Vancomycin resistant Enterococcus faecalis, Enterococcus faecium, Vancomycin resistant Enterococcus faecium were used.

S. aureus^VR = assay: MIC by broth microdilution (aerobic pathogens), test strain 4; assay type: cell-based, Vancomycin resistant Staphylococcus aureus; details: Staphylococcus aureus
Outline: as §1

S. epidermis = assay: MIC by broth microdilution (aerobic pathogens), test strain 5; assay type: cell-based; details: Staphylococcus epidermidis
Outline: as §1

S. epidermis^MR = assay: MIC by broth microdilution (aerobic pathogens), test strain 6; assay type: cell-based, Methicillin resistant Staphylococcus epidermidis; details: Staphylococcus epidermidis
Outline: as §1

E. faecalis = assay: MIC by broth microdilution (aerobic pathogens), test strain 7; assay type: cell-based; details: Enterococcus faecalis
Outline: as §1

E. faecalis^VanA = assay: MIC by broth microdilution (aerobic pathogens), test strain 8; assay type: cell-based, Vancomycin resistant Enterococcus faecalis; details: Enterococcus faecalis
Outline: as §1

E. faecalis^LinR = assay: MIC by broth microdilution (aerobic pathogens), test strain 9; assay type: cell-based, Linezolid resistant Enterococcus faecalis; details: Enterococcus faecalis
Outline: as §1

E. faecium = assay: MIC by broth microdilution (aerobic pathogens), test strain 10; assay type: cell-based; details: Enterococcus faecium
Outline: as §1

E. faecium^LinR = assay: MIC by broth microdilution (aerobic pathogens), test strain 12; assay type: cell-based, Linezolid resistant Enterococcus faecium; details: Enterococcus faecium
Outline: as §1

C. difficile 9689 = assay: MIC by agar dilution against Clostridioides difficile, test strain 13; assay type: cell-based
C. difficile 152 = assay: MIC by agar dilution against Clostridioides difficile, test strain 14; assay type: cell-based
C. difficile 159 = assay: MIC by agar dilution against Clostridioides difficile, test strain 15; assay type: cell-based
C. difficile 173 = assay: MIC by agar dilution against Clostridioides difficile, test strain 17; assay type: cell-based
C. difficile 174 = assay: MIC by agar dilution against Clostridioides difficile, test strain 18; assay type: cell-based
C. difficile 181 = assay: MIC by agar dilution against Clostridioides difficile, test strain 19; assay type: cell-based
M. avium = assay: MIC by resazurin (REMA) assay against Mycobacterium, test strain 21; assay type: cell-based
Protocol: (§2) In order to test the antibacterial activity, the medium of Mycobacterium cultured to late log phase was diluted so as to be 4.0×10^5 cells/well in Middlebrook 7H10 agar medium (Difco) supplemented with 10% oleic acid, albumin, dextrose, catalase (OADC, Becton Dickinson) and 0.05% Tween 80 (Sigma Aldrich) and was dispensed into a 96-well plate. The compounds were treated so that DMSO was 1%, and after 3 days, a 0.025% resazurin (REMA) solution was dispensed, and the growth of the bacteria was confirmed after culturing. The MIC value was measured for the antibacterial activity through resazurin (excitation 530 nm, emission 590 nm).

M. intracelluare = assay: MIC by resazurin (REMA) assay against Mycobacterium, test strain 22; assay type: cell-based; details: Mycobacterium intracellulare
Protocol: as §2

M. abscessus = assay: MIC by resazurin (REMA) assay against Mycobacterium, test strain 23; assay type: cell-based; details: Mycobacteroides abscessus
Protocol: as §2

E. faecium^VRE = assay: MIC by broth microdilution (aerobic pathogens), test strain 11; assay type: cell-based, Vancomycin resistant Enterococcus faecium; details: Enterococcus faecium; test strain 11, E. faecium^VRE (vancomycin resistant); read-out: MIC
Outline: as §1

C. difficile 161 = assay: MIC by agar dilution against Clostridioides difficile, test strain 16; assay type: cell-based; details: test strain 16, C. difficile 161, anaerobic, agar dilution, read-out: MIC
[3] = test strain 1, S. aureus^MS, read-out: MIC
[4] = test strain 2, S. aureus^MS, read-out: MIC
[5] = test strain 5, S. epidermis, read-out: MIC
[6] = test strain 7, E. faecalis, read-out: MIC
[7] = test strain 10, E. faecium, read-out: MIC
[8] = test strain 12, E. faecium^LinR (linezolid resistant), read-out: MIC
[9] = test strain 13, C. difficile 9689, anaerobic, agar dilution, read-out: MIC
[10] = test strain 14, C. difficile 152, anaerobic, agar dilution, read-out: MIC
[11] = test strain 17, C. difficile 173, anaerobic, agar dilution, read-out: MIC
[12] = test strain 18, C. difficile 174, anaerobic, agar dilution, read-out: MIC
[13] = test strain 21, M. avium, resazurin, read-out: MIC
[14] = test strain 22, M. intracelluare, resazurin, read-out: MIC
[15] = test strain 23, M. abscessus, resazurin, read-out: MIC
[16] = test strain 6, S. epidermis^MR (methicillin resistant), read-out: MIC
[17] = test strain 9, E. faecalis^LinR (linezolid resistant), read-out: MIC

SMILES	MIC (S. epidermis^MR) [mg/L]	MIC (E. faecalis^LinR) [mg/L]	MIC (S. aureus^MS [1]; [3]) [mg/L]	MIC (S. aureus^MS [2]; [4]) [mg/L]	MIC (S. epidermis; [5]) [mg/L]	MIC (E. faecalis; [6]) [mg/L]	MIC (E. faecium; [7]) [mg/L]	MIC (E. faecium^LinR; [8]) [mg/L]	MIC (C. difficile 9689; [9]) [mg/L]	MIC (C. difficile 152; [10]) [mg/L]	MIC (C. difficile 161) [mg/L]	MIC (C. difficile 173; [11]) [mg/L]	MIC (C. difficile 174; [12]) [mg/L]	MIC (M. avium; [13]) [mg/L]	MIC (M. intracelluare; [14]) [mg/L]	MIC (M. abscessus; [15]) [mg/L]	MIC (S. epidermis^MR; [16]) [mg/L]	MIC (E. faecalis^LinR; [17]) [mg/L]	other results
C/C=C1\NC(=O)[C@H]([C@@H](C)O)NC(=O)c2csc(n2)-c2ccc(-c3nc(-c4nc(C(=O)NC5(C(=O)NCCN6C(=O)CNC6=O)CC5)cs4)cs3)nc2-c2csc(n2)[C@H]([C@@H](C)O)NC(=O)c2csc(n2)[C@H](C(C)C)NC(=O)c2csc1n2 [Compound 5]	0.5 (≈ 0.412 µM)	0.5 (≈ 0.412 µM)	–	–	–	–	–	–	–	–	–	–	–	–	–	–	–	–	MIC (S. aureus^MS [1]): 0.25 mg/L (≈ 0.206 µM); MIC (S. aureus^MS [2]): 0.25 mg/L (≈ 0.206 µM); MIC (S. aureus^MR): 1 mg/L (≈ 0.825 µM); MIC (S. aureus^VR): 1 mg/L (≈ 0.825 µM); MIC (S. epidermis): 0.5 mg/L (≈ 0.412 µM); MIC (E. faecalis): 0.25 mg/L (≈ 0.206 µM); MIC (E. faecalis^VanA): 0.5 mg/L (≈ 0.412 µM); MIC (E. faecium): 1 mg/L (≈ 0.825 µM); MIC (E. faecium^LinR): 0.5 mg/L (≈ 0.412 µM); MIC (C. difficile 9689; 9689): 1 mg/L (≈ 0.825 µM); MIC (C. difficile 152; 152): 0.5 mg/L (≈ 0.412 µM); MIC (C. difficile 159; 159): 1 mg/L (≈ 0.825 µM); MIC (C. difficile 173; 173): 1 mg/L (≈ 0.825 µM); MIC (C. difficile 174; 174): 0.25 mg/L (≈ 0.206 µM); MIC (C. difficile 181; 181): 0.125 mg/L (≈ 0.103 µM); MIC (M. avium): 0.043 mg/L (≈ 0.0355 µM); MIC (M. intracelluare): 0.155 mg/L (≈ 0.128 µM); MIC (M. abscessus): 0.504 mg/L (≈ 0.416 µM)
C/C=C1\NC(=O)[C@H]([C@@H](C)O)NC(=O)c2csc(n2)-c2ccc(-c3nc(-c4nc(C(=O)NC5(C(=O)NCCCN6CCOCC6)CC5)cs4)cs3)nc2-c2csc(n2)[C@H]([C@@H](C)O)NC(=O)c2csc(n2)[C@H](C(C)C)NC(=O)c2csc1n2 [Compound 7]	0.125 (≈ 0.103 µM)	0.125 (≈ 0.103 µM)	0.25 (≈ 0.206 µM)	0.25 (≈ 0.206 µM)	0.0625 (≈ 0.0515 µM)	0.25 (≈ 0.206 µM)	0.25 (≈ 0.206 µM)	0.5 (≈ 0.412 µM)	0.25 (≈ 0.206 µM)	0.06 (≈ 0.0494 µM)	0.5 (≈ 0.412 µM)	0.06 (≈ 0.0494 µM)	0.06 (≈ 0.0494 µM)	0.083 (≈ 0.0684 µM)	0.107 (≈ 0.0882 µM)	0.322 (≈ 0.265 µM)	–	–	MIC (S. aureus^MR; test strain 3, S. aureus^MR (methicillin resistant), read-out: MIC): 0.5 mg/L (≈ 0.412 µM); MIC (S. aureus^VR; test strain 4, S. aureus^VR (vancomycin resistant), read-out: MIC): 1 mg/L (≈ 0.824 µM); MIC (E. faecalis^VanA; test strain 8, E. faecalis^VanA (vancomycin resistant), read-out: MIC): 0.25 mg/L (≈ 0.206 µM); MIC (E. faecium^VRE): 1 mg/L (≈ 0.824 µM); MIC (C. difficile 159; test strain 15, C. difficile 159, anaerobic, agar dilution, read-out: MIC): 0.25 mg/L (≈ 0.206 µM); MIC (C. difficile 181; test strain 19, C. difficile 181, anaerobic, agar dilution, read-out: MIC): 0.25 mg/L (≈ 0.206 µM)
C/C=C1\NC(=O)[C@H]([C@@H](C)O)NC(=O)c2csc(n2)-c2ccc(-c3nc(-c4nc(C(=O)NC5(C(=O)NCCCN6CCSCC6)CC5)cs4)cs3)nc2-c2csc(n2)[C@H]([C@@H](C)O)NC(=O)c2csc(n2)[C@H](C(C)C)NC(=O)c2csc1n2 [Compound 18]	–	–	0.25 (≈ 0.203 µM)	1 (≈ 0.813 µM)	0.5 (≈ 0.407 µM)	1 (≈ 0.813 µM)	1 (≈ 0.813 µM)	–	0.5 (≈ 0.407 µM)	0.25 (≈ 0.203 µM)	1 (≈ 0.813 µM)	1 (≈ 0.813 µM)	0.25 (≈ 0.203 µM)	0.082 (≈ 0.0667 µM)	0.127 (≈ 0.103 µM)	0.173 (≈ 0.141 µM)	1 (≈ 0.813 µM)	0.5 (≈ 0.407 µM)	–
C/C=C1\NC(=O)[C@H]([C@@H](C)O)NC(=O)c2csc(n2)-c2ccc(-c3nc(-c4nc(C(=O)NC5(C(=O)NCCN6CCN(C(C)C)CC6)CC5)cs4)cs3)nc2-c2csc(n2)[C@H]([C@@H](C)O)NC(=O)c2csc(n2)[C@H](C(C)C)NC(=O)c2csc1n2 [Compound 35]	–	–	0.5 (≈ 0.403 µM)	–	0.25 (≈ 0.202 µM)	0.5 (≈ 0.403 µM)	–	1 (≈ 0.806 µM)	–	–	–	–	–	0.109 (≈ 0.0879 µM)	0.139 (≈ 0.112 µM)	0.123 (≈ 0.0991 µM)	0.5 (≈ 0.403 µM)	1 (≈ 0.806 µM)	–
